# US20260007733A1, “Specific Saccharide Fragment for Development of Vibrio Cholerae Vaccines” (priority 2024, published 2026)
# Tested on: IgG antibodies in anti-sera immunized with the lipopolysaccharide of the V. cholerae O100 serotype
# Assay: Glycan microarray screening of saccharide fragments with rabbit anti-sera
# Type: binding
# Settings: rabbit sera diluted 1:200; goat anti-rabbit IgG secondary antibodies 1:400; FIG. 9
# Description: Step 1: The obtained sugar fragment is dissolved in a 50 mM phosphate solution (pH=8.5), printed onto the microarray using a microarray spotter, and incubated at room temperature and 65% humidity overnight to covalently bind the saccharide fragment to the microarray; and after incubation, the microarray is quenched by treatment with a mixed solution of […] solution (pH=9) at 50° C. for 1 h.
# Step 2: The glycan microarray is probed with diluted rabbit anti-sera and co-incubated to specifically bind IgG antibodies in the anti-sera to the saccharide fragment, and unbound serum antibodies are washed away; and subsequently, fluorescently labeled secondary antibodies (anti-IgG antibodies) are used to bind the IgG antibodies on the microarray and incubated, and unbound secondary antibodies are washed away.
# Synthetic oligosaccharides and LPS were dissolved in a coupling buffer (50 mM sodium phosphate, pH=8.5) for printing onto a “CodeLink” slide (SurModics Co., Ltd.) using an RMA-Arrayer 96 (Rayme China). Then the slide was incubated overnight in a humidifying chamber at 26° C. and 55% humidity. The slide and the microarray were incubated in a quenching buffer ([…] ethanolamine) at 50° C. for 1 h. […]
compound,measurement,value
CC(=O)NC1C(O)[C@H](NC(C)=O)C(C)O[C@H]1OCN (stereo partly shown) [Compound 10],"antigenicity / recognition by the antibodies (glycan microarray, fluorescence)",cannot be recognized by the antibodies
